Source: the supplement of paper PMC10307832

Key:
Experiment in all cases: relative viability (nuclei count vs DMSO), 5 days (fraction); higher = more cells survive
Decitabine + Crizotinib = compound: Nc1ncn([C@H]2C[C@H](O)[C@@H](CO)O2)c(=O)n1 [Decitabine] + C[C@@H](Oc1cc(-c2cnn(C3CCNCC3)c2)cnc1N)c1c(Cl)ccc(F)c1Cl [Crizotinib] (partner 1 µM)
In short: (§1)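 Dosing by pin tool came one day after lung cancer cell lines were seeded in 1536-well plates, using either one drug or a fixed anchor-drug dose plus five library-drug doses (not always all listed) in √10 steps. After 5 days, nuclei were counted on 4× images. Relative viability is treated-well nuclei count divided by vehicle-well nuclei count, and values are medians of duplicate plates.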

Cediranib + Tozasertib = compound: COc1cc2c(Oc3ccc4[nH]c(C)cc4c3F)ncnc2cc1OCCCN1CCCC1 [Cediranib] + Cc1cc(Nc2cc(N3CCN(C)CC3)nc(Sc3ccc(NC(=O)C4CC4)cc3)n2)n[nH]1 [Tozasertib] (partner 0.1 µM)
In short: as §1

Decitabine + Bortezomib = compound: Nc1ncn([C@H]2C[C@H](O)[C@@H](CO)O2)c(=O)n1 [Decitabine] + CC(C)C[C@H](NC(=O)[C@H](Cc1ccccc1)NC(=O)c1cnccn1)B(O)O [Bortezomib] (partner 0.002 µM)
In short: as §1

[1] = compound: O=C(C[C@H]1NCCC[C@@H]1O)Cn1cnc2cc(Br)c(Cl)cc2c1=O (racemic) [Halofuginone] + O=C(CCCCCCC(=O)Nc1ccccc1)NO [Vorinostat] (partner 1 µM)
In short: as §1

Cell Line | relative viability (Decitabine + Crizotinib; first compound 0.04 µM) | relative viability (Decitabine + Crizotinib; first compound 0.1265 µM) | relative viability (Decitabine + Crizotinib; first compound 0.4 µM) | relative viability (Decitabine + Crizotinib; first compound 1.265 µM) | relative viability (Decitabine + Crizotinib; first compound 4 µM) | relative viability (Cediranib + Tozasertib; first compound 0.04 µM) | relative viability (Cediranib + Tozasertib; first compound 0.1265 µM) | relative viability (Cediranib + Tozasertib; first compound 0.4 µM) | relative viability (Cediranib + Tozasertib; first compound 1.265 µM) | relative viability (Cediranib + Tozasertib; first compound 4 µM) | relative viability (Decitabine + Bortezomib; first compound 0.04 µM) | relative viability (Decitabine + Bortezomib; first compound 0.1265 µM) | relative viability (Decitabine + Bortezomib; first compound 0.4 µM) | relative viability (Decitabine + Bortezomib; first compound 1.265 µM) | relative viability (Decitabine + Bortezomib; first compound 4 µM) | relative viability ([1]; first compound 0.001 µM) | relative viability ([1]; first compound 0.003162 µM) | relative viability ([1]; first compound 0.01 µM) | relative viability ([1]; first compound 0.03162 µM) | relative viability ([1]; first compound 0.1 µM)
NCI-H1650 | 0.838 | 0.603 | 0.331 | 0.326 | 0.241 | 0.585 | 0.374 | 0.36 | 0.476 | 0.329 | 0.18 | 0.166 | 0.185 | 0.201 | 0.187 | 0.688 | 0.595 | 0.522 | 0.566 | 0.366
NCI-H1651 | 0.788 | 0.836 | 0.755 | 0.586 | 0.635 | 0.619 | 0.696 | 0.596 | 0.676 | 0.815 | 0.96 | 0.936 | 0.824 | 0.682 | 0.76 | 0.528 | 0.528 | 0.572 | 0.548 | 0.59
NCI-H1666 | 0.7 | 0.75 | 0.708 | 0.512 | 0.46 | 0.651 | 0.678 | 0.598 | 0.595 | 0.624 | 0.723 | 0.726 | 0.545 | 0.625 | 0.569 | 1.14 | 0.966 | 0.999 | 0.984 | 0.955
NCI-H1734 | 0.515 | 0.603 | 0.593 | 0.396 | 0.304 | 0.262 | 0.246 | 0.278 | 0.277 | 0.245 | 0.646 | 0.867 | 0.571 | 0.424 | 0.331 | 0.891 | 0.9 | 0.838 | 0.753 | 0.607
NCI-H1755 | 0.762 | 0.811 | 0.804 | 0.53 | 0.317 | 0.54 | 0.481 | 0.532 | 0.595 | 0.547 | 0.814 | 0.877 | 0.808 | 0.492 | 0.381 | 0.758 | 0.838 | 0.722 | 0.768 | 0.669
NCI-H1915 | 0.314 | 0.285 | 0.217 | 0.194 | 0.201 | 0.467 | 0.384 | 0.428 | 0.46 | 0.42 | 0.379 | 0.279 | 0.197 | 0.183 | 0.184 | 0.531 | 0.554 | 0.561 | 0.472 | 0.511
NCI-H1975 | 0.491 | 0.355 | 0.312 | 0.305 | 0.28 | 0.822 | 0.809 | 0.699 | 0.822 | 0.768 | 0.227 | 0.268 | 0.178 | 0.168 | 0.169 | 0.744 | 0.697 | 0.441 | 0.47 | 0.179
NCI-H1993 | 0.898 | 0.776 | 0.832 | 0.702 | 0.728 | 0.607 | 0.586 | 0.596 | 0.565 | 0.734 | 0.925 | 0.898 | 0.839 | 0.777 | 0.672 | 1.1 | 0.852 | 0.809 | 0.0067 | 0.576
NCI-H2009 | 0.846 | 0.639 | 0.464 | 0.281 | 0.25 | 0.775 | 0.763 | 0.703 | 0.732 | 0.795 | 0.765 | 0.571 | 0.301 | 0.305 | 0.243 | 0.86 | 0.703 | 0.76 | 0.703 | 0.462
NCI-H2023 | 0.471 | 0.455 | 0.285 | 0.217 | 0.133 | 0.389 | 0.353 | 0.267 | 0.433 | 0.303 | 0.628 | 0.61 | 0.206 | 0.206 | 0.155 | 0.81 | 0.64 | 0.56 | 0.453 | 0.0822
NCI-H2085 | 0.578 | 0.432 | 0.519 | 0.399 | 0.388 | 0.756 | 0.877 | 0.757 | 0.836 | 0.784 | 0.751 | 0.801 | 0.58 | 0.451 | 0.366 | 0.817 | 0.805 | 0.759 | 0.815 | 0.748
NCI-H2087 | 0.515 | 0.568 | 0.563 | 0.347 | 0.292 | 0.279 | 0.257 | 0.213 | 0.226 | 0.228 | 0.603 | 0.55 | 0.51 | 0.33 | 0.36 | 0.72 | 0.713 | 0.773 | 0.723 | 0.484
NCI-H2126 | 0.827 | 0.837 | 0.666 | 0.555 | 0.52 | 0.84 | 0.916 | 0.77 | 0.777 | 0.773 | 0.984 | 0.975 | 0.648 | 0.655 | 0.591 | 0.903 | 0.762 | 0.784 | 0.74 | 0.562
NCI-H2228 | 0.524 | 0.394 | 0.367 | 0.199 | 0.286 | 0.26 | 0.351 | 0.237 | 0.207 | 0.203 | 0.788 | 0.755 | 0.389 | 0.314 | 0.229 | 0.822 | 0.807 | 0.726 | 0.424 | 0.0673
NCI-H2347 | 0.691 | 0.511 | 0.549 | 0.474 | 0.469 | 0.532 | 0.385 | 0.596 | 0.539 | 0.485 |  | 0.768 | 0.844 | 0.525 | 0.572 | 0.769 | 0.561 | 0.55 | 0.611 | 0.395
NCI-H2405 | 0.807 | 0.759 | 0.671 | 0.562 | 0.41 | 0.75 | 0.88 | 0.717 | 0.778 | 0.757 | 0.88 | 0.905 | 0.828 | 0.66 | 0.538 | 1.07 | 1.06 | 1.02 | 0.958 | 0.577
